Source: ChEMBL document CHEMBL3351451, “In search of next generation antimalarials” (Bioorg Med Chem Lett, 2014)
Calls of active or inactive are those of the source. The calls are words filed in the database; no cut-off is given here.

Columns and labels:
Plasmodium berghei [1] = assay: Antimalarial activity against Plasmodium berghei infected in mouse assessed as cure at 160 mg/kg measured at 60 days post-infection; type: functional, organism-based; parameters: dose 160 mg/kg
Plasmodium berghei [2] = assay: Antimalarial activity against Plasmodium berghei infected in mouse assessed as survival time at 20 mg/kg (reference value: 6.1 days); type: functional
Plasmodium berghei [3] = assay: Antimalarial activity against Plasmodium berghei infected in mouse assessed as cure at 640 mg/kg measured at 60 days post-infection; type: functional, organism-based; parameters: dose 640 mg/kg
Plasmodium berghei [4] = assay: Antimalarial activity against Plasmodium berghei infected in mouse assessed as cure at 320 mg/kg measured at 60 days post-infection; type: functional, organism-based; parameters: dose 320 mg/kg
Plasmodium berghei [5] = assay: Antimalarial activity against Plasmodium berghei infected in mouse assessed as cure at 40 mg/kg measured at 60 days post-infection; type: functional, organism-based; parameters: dose 40 mg/kg
Plasmodium cynomolgi [6] = assay: Antimalarial activity against Plasmodium cynomolgi infected in rhesus monkey assessed as curative activity at 0.316 mg/kg administered daily for 7 days; type: functional, organism-based; parameters: dose 0.316 mg/kg
Plasmodium berghei [7] = assay: Antimalarial activity against Plasmodium berghei infected in mouse assessed as survival time at 5 mg/kg (reference value: 6.1 days); type: functional
Plasmodium cynomolgi [8] = assay: Antimalarial activity against Plasmodium cynomolgi infected in rhesus monkey assessed as curative activity at 1 mg/kg administered daily for 7 days; type: functional, organism-based; parameters: dose 1 mg/kg
Plasmodium berghei [9] = assay: Antimalarial activity against Plasmodium berghei infected in mouse assessed as cure at 80 mg/kg measured at 60 days post-infection; type: functional, organism-based; parameters: dose 80 mg/kg
Mus musculus [10] = assay: Toxicity in mouse infected with Plasmodium berghei at 320 mg/kg; type: organism-based; parameters: dose 320 mg/kg; details: in vivo
Plasmodium berghei [11] = assay: Antimalarial activity against Plasmodium berghei infected in mouse assessed as cure at 10 mg/kg measured at 60 days post-infection; type: functional, organism-based; parameters: dose 10 mg/kg
Plasmodium berghei [12] = assay: Antimalarial activity against Plasmodium berghei infected in mouse assessed as cure at 5 mg/kg measured at 60 days post-infection; type: functional, organism-based; parameters: dose 5 mg/kg
Mus musculus [13] = assay: Toxicity in mouse infected with Plasmodium berghei at 640 mg/kg; type: organism-based; parameters: dose 640 mg/kg; details: in vivo
Plasmodium berghei [14] = assay: Antimalarial activity against Plasmodium berghei infected in mouse assessed as cure at 20 mg/kg measured at 60 days post-infection; type: functional, organism-based; parameters: dose 20 mg/kg
Plasmodium cynomolgi [15] = assay: Antimalarial activity against Plasmodium cynomolgi infected in rhesus monkey assessed as curative activity at 0.1 mg/kg administered daily for 7 days; type: functional, organism-based; parameters: dose 0.1 mg/kg
Mus musculus [16] = assay: Toxicity in mouse infected with Plasmodium berghei at 160 mg/kg; type: organism-based; parameters: dose 160 mg/kg; details: in vivo

Compound | Activity (Plasmodium berghei [1]) | Activity (Plasmodium berghei [3]) | Activity (Plasmodium berghei [4]) | Activity (Plasmodium berghei [5]) | Activity (Plasmodium cynomolgi [6]) | MST (Plasmodium berghei [7]) [days] | Activity (Plasmodium cynomolgi [8]) | Activity (Plasmodium berghei [9]) | Activity (Plasmodium berghei [11]) | Activity (Plasmodium cynomolgi [15]) | also measured
COc1cc(NC(C)CCCN)c2nccc(C)c2c1OCCCCCCCCCc1ccccc1.O=C(O)/C=C/C(=O)O (configuration not stated) | Active | Active | Active | – | – | – | – | – | – | – | MST (Plasmodium berghei [2]): 8.5 days
COc1cc(NC(C)CCCN)c2nccc(C)c2c1OCCCCCc1ccccc1.O=C(O)/C=C/C(=O)O (configuration not stated) | Active | – | – | Active | Active | 7.9 | Active | Active | – | – | –
CCCCCOc1c(OC)cc(NC(C)CCCN)c2nccc(C)c12 (configuration not stated) | – | – | – | – | – | – | Active | – | Active | – | Activity (Mus musculus [10]): Toxic; Activity (Plasmodium berghei [12]): Active; Activity (Mus musculus [13]): Toxic
COc1cc(NC(C)CCCN)c2nccc(C)c2c1OCCCCCc1cccs1.O=C(O)/C=C/C(=O)O (configuration not stated) | – | – | – | Active | – | 6.6 | – | Active | – | – | Activity (Plasmodium berghei [14]): Active
COc1cc(NC(C)CCCN)c2nccc(C)c2c1OCCCCCc1ccco1.O=C(O)/C=C/C(=O)O (configuration not stated) | Active | – | – | Active | – | 7.7 | – | Active | – | – | –
COc1cc(NC(C)CCCN)c2nccc(C)c2c1OCCCCCCCc1ccccc1 (configuration not stated) | Active | Active | Active | Active | inactive | – | Active | Active | Active | inactive | Activity (Plasmodium berghei [14]): Active
COc1cc(NC(C)CCCN)c2nccc(C)c2c1OCCCc1ccccc1.O=C(O)/C=C/C(=O)O (configuration not stated) | – | – | – | – | – | – | Active | – | Active | – | Activity (Mus musculus [10]): Toxic; Activity (Mus musculus [16]): Toxic; Activity (Mus musculus [13]): Toxic
COc1cc(NC(C)CCCN)c2nccc(C)c2c1OCCCCc1ccccc1.O=C(O)/C=C/C(=O)O (configuration not stated) | – | – | – | – | – | 7.6 | Active | Active | – | inactive | –
COc1cc(NC(C)CCCN)c2nccc(C)c2c1OCCCCCCc1ccccc1.O=C(O)/C=C/C(=O)O (configuration not stated) | – | – | – | – | Active | 5.9 | Active | – | – | inactive | –
COc1cc(NC(C)CCCN)c2nccc(C)c2c1OCCCCCCCCc1ccccc1.O=C(O)/C=C/C(=O)O (configuration not stated) | Active | Active | Active | Active | – | 5.7 | – | Active | – | – | –
